Data on 1 compound can be found in PMC7138916 (Pharmacology Research & Perspectives, 2020).

Structures are written as SMILES. Read-outs that look alike come from different tables or passages of the source.

Data set [1] is described as follows: Bidirectional permeability in parental MDCK cells. The note with it: dog, MDCK. The format is in vitro ADME, Canine.
For data set [2], the system named is efflux transporters (eg, P‐gp, BCRP, MRPs). The data set can be described thus: Classification as efflux transporter substrate.
Data set [3] is described as follows: Bidirectional permeability and efflux ratio in Caco‐2 cells. The format is in vitro ADME, human. The settings on record: human, Caco-2. In general terms: Caco-2 cells form a polarised layer with tight junctions and transporters.
A short description of data set [4]: Rat pharmacokinetic study, IV single bolus. The settings on record: male, Sprague-Dawley, in vivo, iv.
In data set [5] the test system is P‐glycoprotein. The note with it: digoxin efflux, rat colon; cited from earlier work.
In data set [6] the test system is P‐glycoprotein. The note with it: digoxin efflux, human colon, cited from earlier work.

The Papp A→B is how fast a substance crosses the layer from the apical side. For orientation: Papp B→A means how fast a substance crosses the layer from the basolateral side. A word on the Papp: it is a coefficient for how fast a substance crosses the barrier. By Vd is commonly meant the apparent volume that relates the amount in the body to the concentration in plasma or blood. Read a high Vd as extensive tissue distribution. The clearance is the volume of plasma or blood freed of the substance per unit of time. A high value points to a high capacity for elimination. Broadly, the half-life is how long it takes for the measured level to halve. Consider `C[C@H]1O[C@@H](O[C@H]2[C@@H](O)C[C@H](O[C@H]3[C@@H](O)C[C@H](O[C@H]4CC[C@@]5(C)[C@H](CC[C@@H]6[C@@H]5C[C@@H](O)[C@]5(C)[C@@H](C7=CC(=O)OC7)CC[C@]65O)C4)O[C@@H]3C)O[C@@H]2C)C[C@H](O)[C@@H]1O` [Digoxin, digoxin], for which, in data set [1], the Papp A→B at 2 h, 1 μmol/L came to 2.22 ± 0.34 ×10⁻⁶ cm/s; the Papp B→A at 2 h, 1 μmol/L stood at 2.73 ± 0.45 ×10⁻⁶ cm/s; the Papp at 2 h, 1 μmol/L worked out at 2.48 ± 0.46 ×10⁻⁶ cm/s. Also, the Efflux transporter substrate result in data set [2] (Yes/No) is on record as “Yes”. Besides, in data set [2] (parental MDCK, MDR1‐MDCK, and Caco‐2 cell lines), the “Class (based on membrane permeability and ER value)” value is reported as “Class II”. In data set [3], the Papp A→B at 2 h, 5 μmol/L stood at 0.477 ± 0.088 ×10⁻⁶ cm/s and the Papp B→A at 2 h, 5 μmol/L is 23 ± 1.6 ×10⁻⁶ cm/s. In data set [4], this compound showed a Vd of 0.376 ± 0.013 L/kg, a clearance of 9.1 ± 1.3 mL/min/kg and a half-life of 1.3 ± 0.26 h. Also, the “J max (maximal net flux)” value in the data set on P‐glycoprotein [5] is 2.2 ± 0.3 nmol/h/cm^2. Besides, the “J max (maximal net flux)” value in the data set with P‐glycoprotein [6] was 3.1 ± 0.8 nmol/h/cm^2. For the same compound, the EC50 with P‐glycoprotein [6] (read-out: EC50 (the concentration at which half‐maximal flux was achieved)) is 58.7 ± 15.5 µM.
